In data set [1] the test system is Respiratory Syncytial Virus. Kind of data set: microbe, parasite or virus in culture. Conditions: human respiratory syncytial virus, 168 h; protection against RSV cytopathology in HeLa cells, MTT read-out seven days after infection; pEC50 = -log of EC50 in molar units. In kind it is cell-based. On the procedure:
The percent protection against cytopathology caused by viruses (antiviral activity or EC50) achieved by tested compounds and their cytotoxicity (CC50) are both calculated from dose-response curves.
Automated tetrazolium-based […] assays were used for determination of EC50 and CC50 of test compounds. Flat-bottom, 96-well plastic microtiter trays were filled with 180 μl of Eagle's Basal Medium, supplemented with 5% FCS (0% for FLU) and 20 mM Hepes buffer. Subsequently, stock solutions (7.8× final test concentration) of compounds were added in 45 μl volumes to a series of triplicate wells so as to allow simultaneous evaluation of their effects on virus- and mock-infected cells. Five five-fold dilutions were made directly in the microtiter trays using a robot system. Untreated virus controls, and HeLa cell controls were included in each test. Approximately 100 TCID50 of Respiratory Syncytial Virus was added to two of the three rows in a volume of 50 μl. The same volume of medium was added to the third row to measure the cytotoxicity of the compounds at the same concentrations as those used to measure the antiviral activity. After two hours of incubation, a suspension (4×10^5 cells/ml) of HeLa cells was added to all wells in a volume of 50 μl. The cultures were incubated at 37° C. in a 5% CO2 atmosphere. Seven days after infection the cytotoxicity and the antiviral activity was examined spectrophotometrically. To each well of the microtiter tray, 25 μl of a solution of MTT (3-(4,5-dimethylthiazol-2-yl)-2,5-diphenyltetrazolium bromide) was added. The trays were further incubated at 37° C. for 2 hours, after which the medium was removed from each cup. Solubilization of the formazan crystals was achieved by adding 100 μl 2-propanol. Complete dissolution of the formazan crystals were obtained after the trays have been placed on a plate shaker for 10 min. Finally, the absorbances were read in an eight-channel computer-controlled photometer (Multiskan MCC, Flow Laboratories) at two wavelengths (540 and 690 nm). The absorbance measured at 690 nm was automatically subtracted from the absorbance at 540 nm, so as to eliminate the effects of non-specific absorption.

Counter-ions that a name gives are not always drawn. Bounds are passed on as bounds.

By melting point is commonly meant the temperature, or range, at which the solid turns liquid. By EC50 is commonly meant the concentration at which the effect is half-maximal.

On to `CCOC(=O)CCNc1nc2c(C)cc(C)cc2n1Cc1nc(C)ccc1O` (as salt: salt) [Compound 12, 3-[1-(3-hydroxy-6-methylpyridin-2-ylmethyl)-4,6-dimethyl-1H-benzoimidazol-2-ylamino]-propionic acid ethyl ester], for which the melting point was 180 °C.

With `Cc1cc(C)c2nc(Nc3ccc(CN)cc3)n(Cc3nc(C)ccc3O)c2c1` [Compound 9, 2-[2-(4-aminomethyl-phenylamino)-4,6-dimethyl-benzoimidazol-1-ylmethyl]-6-methyl-pyridin-3-ol], the EC50 in data set [1] was 251 nM.

In turn, `Cc1cc(C)c2nc(NCC(O)CO)n(Cc3nc(C)ccc3O)c2c1` (stereo not drawn) (as salt: salt) [Compound 4, 3-[1-(3-hydroxy-6-methyl-pyridin-2-ylmethyl)-4,6-dimethyl-1H-benzoimidazol-2-ylamino]-propane-1,2-diol] registered a melting point of 205 °C.

As to `Cc1cc(C)c2nc(NCCCN3CCCCC3)n(Cc3nc(C)ccc3O)c2c1` [Compound 1, 2-[4,6-dimethyl-2-(3-piperidin-1-yl-propylamino)-benzoimidazol-1-ylmethyl]-6-methyl-pyridin-3-ol], the 50% effective concentration (EC50) in data set [1] is 20 nM.

For the compound `Cc1cc(C)c2nc(NCCCO)n(Cc3nc(C)ccc3O)c2c1` [Compound 7, 2-[2-(3-hydroxypropylamino)-4,6-dimethyl-benzoimidazol-1-ylmethyl]-6-methyl-pyridin-3-ol], in data set [1], the EC50 is 158 nM.

Compound `Cc1cc(C)c2nc(Nc3ccc(CN)cc3)n(Cc3nc(C)ccc3O)c2c1` (as salt: salt) [Compound 9, 2-[2-(4-aminomethyl-phenylamino)-4,6-dimethyl-benzoimidazol-1-ylmethyl]-6-methyl-pyridin-3-ol] showed a melting point of 255 °C.

The compound `Cc1cc(C)c2nc(NCCCN3CCCCC3)n(Cc3nc(C)ccc3O)c2c1` (as salt: salt) [Compound 1, 2-[4,6-dimethyl-2-(3-piperidin-1-yl-propylamino)-benzoimidazol-1-ylmethyl]-6-methyl-pyridin-3-ol] yielded a melting point greater than 260 °C.

With `Cc1cc(C)c2nc(NCCC(N)=O)n(Cc3nc(C)ccc3O)c2c1` (as salt: salt) [Compound 8, 3-[1-(3-hydroxy-6-methyl-pyridin-2-ylmethyl)-4,6-dimethyl-1H-benzoimidazol-2-ylamino]-propionamide], the melting point came out at 229 °C.

The compound `Cc1cc(C)c2nc(NCCCO)n(Cc3nc(C)ccc3O)c2c1` (as salt: salt) [Compound 7, 2-[2-(3-hydroxypropylamino)-4,6-dimethyl-benzoimidazol-1-ylmethyl]-6-methyl-pyridin-3-ol] showed a melting point of 170 °C.

Take `Cc1cc(C)c2nc(NCC(O)CO)n(Cc3nc(C)ccc3O)c2c1` (stereo not drawn) [Compound 4, 3-[1-(3-hydroxy-6-methyl-pyridin-2-ylmethyl)-4,6-dimethyl-1H-benzoimidazol-2-ylamino]-propane-1,2-diol]: in data set [1], the EC50 is 39.8 nM.

`CCOC(=O)CCNc1nc2c(C)cc(C)cc2n1Cc1nc(C)ccc1O` [Compound 12, 3-[1-(3-hydroxy-6-methylpyridin-2-ylmethyl)-4,6-dimethyl-1H-benzoimidazol-2-ylamino]-propionic acid ethyl ester]: the EC50 in data set [1] was 3160 nM.

As to `Cc1cc(C)c2nc(NCCC(N)=O)n(Cc3nc(C)ccc3O)c2c1` [Compound 8, 3-[1-(3-hydroxy-6-methyl-pyridin-2-ylmethyl)-4,6-dimethyl-1H-benzoimidazol-2-ylamino]-propionamide], in data set [1], the half-maximal effective concentration (EC50) is 158 nM.

The values are drawn from patent US20090036466A1, “AMINO-BENZIMIDAZOLES DERIVATIVES AS INHIBITORS OF RESPIRATORY SYNCYTIAL VIRUS REPLICATION” (priority 2003, published 2009).
